Source: patent publication EP4678638A1, “NEW E3 UBIQUITIN LIGASE LIGAND, PROTEIN DEGRADATION AGENT AND USE THEREOF” (priority 2023, dated 2024)

Columns and labels:
Format in all cases: cell-based
Conditions in all cases: Table D16
IKZF2 = biological target: T1, IKZF2 (Homo sapiens, UniProt Q96SW2+Q9UKS7); assay: Western blot degradation of IKZF2 (hPBMC)
T1 construct: evaluate the effects of the compounds of the present disclosure on the expression of target proteins in cells; endogenous in cells; host or cells: hPBMC
T1 sequence (Q9UKS7 whole entry): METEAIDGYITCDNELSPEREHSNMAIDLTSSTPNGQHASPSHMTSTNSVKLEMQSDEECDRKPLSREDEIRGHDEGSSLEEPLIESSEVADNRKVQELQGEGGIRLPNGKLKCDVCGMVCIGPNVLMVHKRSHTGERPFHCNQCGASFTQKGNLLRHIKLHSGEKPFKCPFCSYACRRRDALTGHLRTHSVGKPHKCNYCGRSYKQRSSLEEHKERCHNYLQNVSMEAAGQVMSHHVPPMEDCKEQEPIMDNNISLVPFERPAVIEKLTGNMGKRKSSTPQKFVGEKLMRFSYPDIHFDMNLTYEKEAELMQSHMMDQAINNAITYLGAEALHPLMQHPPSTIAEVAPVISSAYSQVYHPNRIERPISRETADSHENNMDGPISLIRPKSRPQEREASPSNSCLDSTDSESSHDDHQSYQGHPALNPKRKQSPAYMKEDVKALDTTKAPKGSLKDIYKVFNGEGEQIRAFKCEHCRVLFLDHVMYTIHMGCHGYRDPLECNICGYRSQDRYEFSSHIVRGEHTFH
T1 sequence (Q96SW2 whole entry): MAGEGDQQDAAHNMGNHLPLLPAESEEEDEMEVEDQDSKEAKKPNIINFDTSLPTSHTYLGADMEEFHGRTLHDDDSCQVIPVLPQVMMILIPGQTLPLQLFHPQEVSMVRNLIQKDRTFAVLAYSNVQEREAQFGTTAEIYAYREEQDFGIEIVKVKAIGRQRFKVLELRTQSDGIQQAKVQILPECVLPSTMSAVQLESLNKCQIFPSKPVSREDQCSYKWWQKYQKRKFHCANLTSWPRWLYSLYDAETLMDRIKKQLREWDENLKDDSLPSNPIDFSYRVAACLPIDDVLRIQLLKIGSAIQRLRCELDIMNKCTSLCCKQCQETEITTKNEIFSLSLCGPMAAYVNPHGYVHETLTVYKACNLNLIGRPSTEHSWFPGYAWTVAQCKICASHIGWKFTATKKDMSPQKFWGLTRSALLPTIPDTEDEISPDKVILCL
T1 sequence (Q16531 whole entry partner): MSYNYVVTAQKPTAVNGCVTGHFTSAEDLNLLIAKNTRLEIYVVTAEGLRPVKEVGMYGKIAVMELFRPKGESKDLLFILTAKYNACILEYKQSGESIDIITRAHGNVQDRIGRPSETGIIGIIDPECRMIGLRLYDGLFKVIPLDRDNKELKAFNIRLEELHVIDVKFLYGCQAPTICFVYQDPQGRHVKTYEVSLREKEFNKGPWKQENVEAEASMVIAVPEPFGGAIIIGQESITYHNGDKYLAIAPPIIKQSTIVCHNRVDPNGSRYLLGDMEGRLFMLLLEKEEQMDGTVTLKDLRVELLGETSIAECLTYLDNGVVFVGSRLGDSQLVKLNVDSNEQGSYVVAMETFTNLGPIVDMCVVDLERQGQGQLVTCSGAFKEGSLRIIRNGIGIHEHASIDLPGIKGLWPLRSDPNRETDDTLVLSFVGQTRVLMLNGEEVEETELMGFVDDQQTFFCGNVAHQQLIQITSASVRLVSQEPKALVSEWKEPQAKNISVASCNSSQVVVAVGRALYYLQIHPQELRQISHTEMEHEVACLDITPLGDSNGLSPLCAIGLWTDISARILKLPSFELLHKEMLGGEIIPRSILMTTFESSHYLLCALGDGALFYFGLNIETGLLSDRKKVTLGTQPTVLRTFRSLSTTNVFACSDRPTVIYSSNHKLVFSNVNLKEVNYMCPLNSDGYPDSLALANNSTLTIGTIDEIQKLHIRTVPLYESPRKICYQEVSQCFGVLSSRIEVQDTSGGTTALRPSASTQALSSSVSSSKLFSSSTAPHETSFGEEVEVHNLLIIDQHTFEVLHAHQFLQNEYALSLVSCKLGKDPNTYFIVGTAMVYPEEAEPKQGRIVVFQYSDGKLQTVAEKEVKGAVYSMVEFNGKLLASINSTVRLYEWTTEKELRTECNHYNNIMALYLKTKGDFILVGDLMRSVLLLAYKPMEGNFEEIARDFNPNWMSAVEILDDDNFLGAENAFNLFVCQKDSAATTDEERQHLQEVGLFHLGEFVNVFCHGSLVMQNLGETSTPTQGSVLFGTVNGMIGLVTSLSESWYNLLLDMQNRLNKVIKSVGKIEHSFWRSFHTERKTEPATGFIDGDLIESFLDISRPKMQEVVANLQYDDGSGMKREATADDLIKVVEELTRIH
Description: (§1) Conventional Western blot assay was performed to evaluate the effects of the compounds of the present disclosure on the expression of target proteins in cells.
(§2) (1) Cell Seeding and Protein Harvesting: The selected cells were processed according to the cell seeding procedure and protein harvesting procedure in Table III-2. Table III-2 Cell Seeding and Protein Harvesting Procedures
(§3) (2) To the collected supernatant, 5X SDS sample loading buffer was added, followed by denaturation at 95°C for 5 minutes. The denatured samples were then separated by SDS-PAGE electrophoresis on a polyacrylamide gel. Proteins were transferred to a nitrocellulose membrane (0.45 µm NC membrane), blocked with blocking buffer at room temperature for 1 hour, and subjected to antibody incubation and development procedures according to the antibody manufacturer's instructions (Cell Signaling Technology).
(§4) Half-Maximal Degradation Concentration value (the drug concentration required for degrading proteins by 50%, abbreviated as DC50) reads method: comparing the grayscale values of Western blot bands from drug-treated samples with those from blank DMSO-treated controls, and identifying the drug concentration range at which the grayscale value is half that of the DMSO-treated control bands.
(§5) DC50 values can be calculated using ImageJ software to measure grayscale values of Western blot bands from drug-treated samples. The concentration-response curve is fitted to estimate the drug concentration corresponding to half the grayscale value.
(§6) Target protein remaining (%) refers to the percentage of target protein remaining in hPBMC cells after treatment with protein degrader compounds.
(§7) Calculation method for target protein remaining (%): Use ImageJ software to measure grayscale values of Western blot bands from drug (protein degrader)-treated samples. The grayscale value of drug-treated bands is divided by that of internal control protein bands, and the resulting quotient is normalized to obtain the relative percentage of remaining target protein after protein degrader treatment.
(§8) Target protein degradation rate (%) = 100% - target protein remaining (%).

WEE1 = biological target: T2, WEE1 (Homo sapiens, UniProt P30291+Q96SW2); assay: Western blot degradation of WEE1 (hPBMC)
T2 construct: evaluate the effects of the compounds of the present disclosure on the expression of target proteins in cells; endogenous in cells; host or cells: hPBMC
Description: as §1, §2, §3, §4, §5, §6, §7, §8

GSPT1 = biological target: T3, GSPT1 (Homo sapiens, UniProt P15170+Q96SW2); assay: Western blot degradation of GSPT1 (hPBMC)
T3 construct: evaluate the effects of the compounds of the present disclosure on the expression of target proteins in cells; endogenous in cells; host or cells: hPBMC
T3 sequence (P15170 whole entry): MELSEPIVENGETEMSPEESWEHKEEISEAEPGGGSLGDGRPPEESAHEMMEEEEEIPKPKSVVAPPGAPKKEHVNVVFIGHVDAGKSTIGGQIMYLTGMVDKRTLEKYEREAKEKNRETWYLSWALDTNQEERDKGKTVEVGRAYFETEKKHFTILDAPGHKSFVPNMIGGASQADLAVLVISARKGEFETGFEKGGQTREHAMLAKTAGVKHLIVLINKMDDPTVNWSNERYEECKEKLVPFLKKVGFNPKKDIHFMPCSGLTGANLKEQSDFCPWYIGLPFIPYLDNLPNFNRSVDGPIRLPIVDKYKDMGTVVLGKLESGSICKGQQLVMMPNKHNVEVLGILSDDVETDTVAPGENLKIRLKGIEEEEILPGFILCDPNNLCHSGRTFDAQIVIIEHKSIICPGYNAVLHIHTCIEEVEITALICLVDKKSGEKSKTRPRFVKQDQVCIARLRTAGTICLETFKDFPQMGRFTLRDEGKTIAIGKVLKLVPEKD
T3 sequence (Q96SW2 whole entry): as the sequence (Q96SW2 whole entry) above
T3 sequence (Q16531 whole entry partner): as the sequence (Q16531 whole entry partner) above
Description: as §1, §2, §3, §4, §5, §6, §7, §8

IKZF3 = biological target: T4, IKZF3 (Homo sapiens, UniProt Q96SW2+Q9UKT9); assay: Western blot degradation of IKZF3 (hPBMC)
T4 construct: evaluate the effects of the compounds of the present disclosure on the expression of target proteins in cells; endogenous in cells; host or cells: hPBMC
T4 sequence (Q9UKT9 whole entry): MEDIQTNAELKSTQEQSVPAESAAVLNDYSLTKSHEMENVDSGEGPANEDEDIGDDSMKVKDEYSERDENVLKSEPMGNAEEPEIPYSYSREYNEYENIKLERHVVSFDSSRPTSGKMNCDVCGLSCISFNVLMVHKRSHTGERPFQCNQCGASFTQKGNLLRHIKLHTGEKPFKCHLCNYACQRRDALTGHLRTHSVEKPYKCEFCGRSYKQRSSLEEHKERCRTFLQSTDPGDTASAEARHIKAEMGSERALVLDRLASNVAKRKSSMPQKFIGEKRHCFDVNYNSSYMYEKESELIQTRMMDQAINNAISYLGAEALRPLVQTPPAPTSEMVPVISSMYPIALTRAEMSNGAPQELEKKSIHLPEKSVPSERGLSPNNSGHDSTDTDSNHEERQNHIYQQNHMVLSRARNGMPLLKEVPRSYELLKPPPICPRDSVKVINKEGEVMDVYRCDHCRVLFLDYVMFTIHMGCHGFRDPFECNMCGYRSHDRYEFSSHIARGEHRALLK
T4 sequence (Q96SW2 whole entry): as the sequence (Q96SW2 whole entry) above
T4 sequence (Q16531 whole entry partner): as the sequence (Q16531 whole entry partner) above
Description: as §1, §2, §3, §4, §5, §6, §7, §8

CK1a = biological target: T5, CK1a (Homo sapiens, UniProt P48729+Q96SW2); assay: Western blot degradation of CK1a (hPBMC)
T5 construct: evaluate the effects of the compounds of the present disclosure on the expression of target proteins in cells; endogenous in cells; host or cells: hPBMC
T5 sequence (P48729 whole entry): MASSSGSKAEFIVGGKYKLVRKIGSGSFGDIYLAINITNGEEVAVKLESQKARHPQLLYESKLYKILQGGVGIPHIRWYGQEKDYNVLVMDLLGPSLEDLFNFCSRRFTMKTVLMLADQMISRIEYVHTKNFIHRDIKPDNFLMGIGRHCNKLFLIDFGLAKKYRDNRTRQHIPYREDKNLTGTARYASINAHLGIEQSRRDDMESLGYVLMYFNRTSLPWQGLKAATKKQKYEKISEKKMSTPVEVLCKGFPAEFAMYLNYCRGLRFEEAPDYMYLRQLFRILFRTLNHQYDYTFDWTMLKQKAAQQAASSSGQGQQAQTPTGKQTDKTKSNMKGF
T5 sequence (Q96SW2 whole entry): as the sequence (Q96SW2 whole entry) above
T5 sequence (Q16531 whole entry partner): as the sequence (Q16531 whole entry partner) above
Description: as §1, §2, §3, §4, §5, §6, §7, §8

IKZF1 = biological target: T6, IKZF1 (Homo sapiens, UniProt Q13422+Q96SW2); assay: Western blot degradation of IKZF1 (hPBMC)
T6 construct: evaluate the effects of the compounds of the present disclosure on the expression of target proteins in cells; endogenous in cells; host or cells: hPBMC
T6 sequence (Q13422 whole entry): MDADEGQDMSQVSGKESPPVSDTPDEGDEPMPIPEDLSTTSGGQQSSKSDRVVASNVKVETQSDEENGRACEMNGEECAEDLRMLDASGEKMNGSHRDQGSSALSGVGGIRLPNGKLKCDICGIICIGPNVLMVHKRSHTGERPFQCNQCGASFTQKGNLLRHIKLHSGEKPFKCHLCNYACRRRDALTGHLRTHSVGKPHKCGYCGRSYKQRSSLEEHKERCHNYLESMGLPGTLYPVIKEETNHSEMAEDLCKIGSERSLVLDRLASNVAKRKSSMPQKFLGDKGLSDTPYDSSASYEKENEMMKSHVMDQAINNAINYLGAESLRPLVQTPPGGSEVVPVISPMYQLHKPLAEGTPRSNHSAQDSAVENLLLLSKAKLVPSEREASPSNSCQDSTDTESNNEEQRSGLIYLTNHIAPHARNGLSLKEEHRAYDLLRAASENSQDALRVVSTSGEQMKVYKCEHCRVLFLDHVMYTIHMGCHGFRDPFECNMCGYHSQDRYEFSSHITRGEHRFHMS
T6 sequence (Q96SW2 whole entry): as the sequence (Q96SW2 whole entry) above
T6 sequence (Q16531 whole entry partner): as the sequence (Q16531 whole entry partner) above
Description: as §1, §2, §3, §4, §5, §6, §7, §8

Compound	Degradation of substrate protein IKZF2 (substrate protein remaining %) (IKZF2)	Degradation of substrate protein WEE1 (substrate protein remaining %) (WEE1)	Degradation of substrate protein GSPT1 (substrate protein remaining %) (GSPT1)	Degradation of substrate protein IKZF3 (substrate protein remaining %) (IKZF3)	Degradation of substrate protein CKla (substrate protein remaining %) (CK1a)	Degradation of substrate protein IKZF1 (substrate protein remaining %) (IKZF1)
CC(C)(C)[Si](C)(C)OCc1ccncc1NC1CCC(=O)NC1=O (stereo not drawn) [GT-07638, 3-((4-(((tert-Butyldimethylsilyl)oxy)methyl)pyridin-3-yl)amino)piperidine-2,6-dione]	A (A is defined as 0% ≤ substrate protein remaining % ≤ 80%)	A (A is defined as 0% ≤ substrate protein remaining % ≤ 80%)	A (A is defined as 0% ≤ substrate protein remaining % ≤ 80%)	A (A is defined as 0% ≤ substrate protein remaining % ≤ 80%)	B (B is defined as substrate protein remaining % > 80%)	B (B is defined as substrate protein remaining % > 80%)
CC(C)(C)[Si](C)(C)OCc1cncnc1NC1CCC(=O)NC1=O (stereo not drawn) [GT-07639, 3-((5-(((tert-Butyldimethylsilyl)oxy)methyl)pyrimidin-4-yl)amino)piperidine-2,6-dione]	A (A is defined as 0% ≤ substrate protein remaining % ≤ 80%)	A (A is defined as 0% ≤ substrate protein remaining % ≤ 80%)	A (A is defined as 0% ≤ substrate protein remaining % ≤ 80%)	A (A is defined as 0% ≤ substrate protein remaining % ≤ 80%)	A (A is defined as 0% ≤ substrate protein remaining % ≤ 80%)	A (A is defined as 0% ≤ substrate protein remaining % ≤ 80%)
O=Cc1ccc(NC2CCC(=O)NC2=O)cn1 (stereo not drawn) [GT-07640, 5-((2,6-Dioxopiperidin-3-yl)amino)picolinaldehyde]	A (A is defined as 0% ≤ substrate protein remaining % ≤ 80%)	A (A is defined as 0% ≤ substrate protein remaining % ≤ 80%)	A (A is defined as 0% ≤ substrate protein remaining % ≤ 80%)	A (A is defined as 0% ≤ substrate protein remaining % ≤ 80%)	B (B is defined as substrate protein remaining % > 80%)	A (A is defined as 0% ≤ substrate protein remaining % ≤ 80%)
CC(C)(C)[Si](C)(C)OCc1cc(NC2CCC(=O)NC2=O)ncc1F (stereo not drawn) [GT-07724, 3-((4-(((tertbutyldimethylsilyl)oxy)methyl)-5-fluoropyridin-2-yl)amino)piperidine-2,6-dione]	A (A is defined as 0% ≤ substrate protein remaining % ≤ 80%)	A (A is defined as 0% ≤ substrate protein remaining % ≤ 80%)	A (A is defined as 0% ≤ substrate protein remaining % ≤ 80%)	A (A is defined as 0% ≤ substrate protein remaining % ≤ 80%)	B (B is defined as substrate protein remaining % > 80%)	A (A is defined as 0% ≤ substrate protein remaining % ≤ 80%)
O=C1CCN(c2cncc(CCl)n2)C(=O)N1 [GT-07728, 1-(6-(Chloromethyl)pyrazin-2-yl)dihydropyrimidine-2,4(1H,3H)-dione]	A (A is defined as 0% ≤ substrate protein remaining % ≤ 80%)	A (A is defined as 0% ≤ substrate protein remaining % ≤ 80%)	B (B is defined as substrate protein remaining % > 80%)	A (A is defined as 0% ≤ substrate protein remaining % ≤ 80%)	B (B is defined as substrate protein remaining % > 80%)	A (A is defined as 0% ≤ substrate protein remaining % ≤ 80%)
NCc1cc(N2CCC(=O)NC2=O)cnc1F [GT-07729, 1-(5-(Aminomethyl)-6-fluoropyridin-3-yl)dihydropyrimidine-2,4(1H,3H)-dione]	A (A is defined as 0% ≤ substrate protein remaining % ≤ 80%)	A (A is defined as 0% ≤ substrate protein remaining % ≤ 80%)	A (A is defined as 0% ≤ substrate protein remaining % ≤ 80%)	A (A is defined as 0% ≤ substrate protein remaining % ≤ 80%)	B (B is defined as substrate protein remaining % > 80%)	A (A is defined as 0% ≤ substrate protein remaining % ≤ 80%)
NCc1cncc(N2CCC(=O)NC2=O)n1 [GT-07801, 1-(6-(Aminomethyl)pyrazin-2-yl)dihydropyrimidine-2,4(1H,3H)-dione]	B (B is defined as substrate protein remaining % > 80%)	B (B is defined as substrate protein remaining % > 80%)	B (B is defined as substrate protein remaining % > 80%)	B (B is defined as substrate protein remaining % > 80%)	A (A is defined as 0% ≤ substrate protein remaining % ≤ 80%)	B (B is defined as substrate protein remaining % > 80%)
O=C1CCC(Nc2ccc(CO)nn2)C(=O)N1 (stereo not drawn) [GT-07803, 3-((6-(Hydroxymethyl)pyridazin-3-yl)amino)piperidine-2,6-dione]	A (A is defined as 0% ≤ substrate protein remaining % ≤ 80%)	B (B is defined as substrate protein remaining % > 80%)	B (B is defined as substrate protein remaining % > 80%)	A (A is defined as 0% ≤ substrate protein remaining % ≤ 80%)	B (B is defined as substrate protein remaining % > 80%)	A (A is defined as 0% ≤ substrate protein remaining % ≤ 80%)
O=Cc1ccncc1NC1CCC(=O)NC1=O (stereo not drawn) [GT-07804, 3-((2,6-Dioxopiperidin-3-yl)amino)isonicotinaldehyde]	A (A is defined as 0% ≤ substrate protein remaining % ≤ 80%)	B (B is defined as substrate protein remaining % > 80%)	B (B is defined as substrate protein remaining % > 80%)	A (A is defined as 0% ≤ substrate protein remaining % ≤ 80%)	B (B is defined as substrate protein remaining % > 80%)	B (B is defined as substrate protein remaining % > 80%)
O=Cc1cncnc1NC1CCC(=O)NC1=O (stereo not drawn) [GT-07805, 4-((2,6-Dioxopiperidin-3-yl)amino)pyrimidine-5-carbaldehyde]	A (A is defined as 0% ≤ substrate protein remaining % ≤ 80%)	B (B is defined as substrate protein remaining % > 80%)	B (B is defined as substrate protein remaining % > 80%)	A (A is defined as 0% ≤ substrate protein remaining % ≤ 80%)	B (B is defined as substrate protein remaining % > 80%)	A (A is defined as 0% ≤ substrate protein remaining % ≤ 80%)
